Assay results from patent US20230009323A1, “COMPOUNDS AND METHODS FOR THE TREATMENT OF CRYPTOSPORIDIOSIS” (The Broad Institute, Inc., priority 2019, published 2023).

Tests used:
C. parvum [1] = assay: Asexual growth vs DMC1 sexual differentiation assay; type: cell-based, Cryptosporidium parvum
Protocol: The effect on expression of the meiotic recombination protein DMC1 was previously identified as a sexual stage-specific marker for C. parvum. The potency of Compound 11 for inhibiting asexual development during the first 48 h of infection was compared to its potency at inhibiting DMC1 expression when compound was added after 48 h of culture (the approximate timing of sexual differentiation). In addition to staining for parasites with FITC-Vicia villosa lectin and DNA with Hoechst as above, samples were stained for the presence of DMC1 with an anti-C. parvum DMC1 mouse monoclonal antibody (clone 1H10G7 (IgG2b, kappa) used as undiluted culture medium with a secondary Alexa Fluor 568 goat anti-mouse IgG antibody (Invitrogen) at 1:500 dilution. Cultures were performed in 384-well plates with the addition of amphotericin B (Sigma, catalog) to the culture medium at 0.1 to 0.5 μg·mL^−1 for these assays. Images were acquired as above, and analyzed using NIH ImageJ software.

HEK293T cytotoxicity = type: cell-based; settings: human, HEK293T cells
[2] = system: C. parvum parental WT (Bunchgrass); assay: In vitro drug susceptibility in HCT-8 cells, luminescence, parent strain; type: cell-based; settings: Cryptosporidium parvum; 48 h, HCT-8, luciferase activity
Protocol: (§1) The in vitro drug susceptibility assay using transgenic parasites expressing Nluc was performed as described in Vinyak et al. Briefly, host intestinal epithelial adenocarcinoma (HCT-8) cells grown in 96-well plates were infected with purified transgenic Nluc-expressing oocysts (1,000 oocysts per well) and incubated with different concentrations of Compound 11 for 48 hours. Culture supernatant was discarded from the wells after 48 hours, and 200 μl of NanoGlo lysis buffer containing 1:50 of NanoGlo substrate (Promega) was added to the wells. Lysates were transferred to white 96-well plates and luminescence was measured on a Glomax luminescence reader (Promega). EC50 values were calculated in GraphPad Prism software v7.
(§2) Oocysts from the mutant (mut482V) and wild type (wtL482) transgenic lines were purified as well as the parent strain (Bunchgrass) used to generate the transgenics. Sporozoites were excised from these oocysts and used to infect 96 well format HCT-8 cultures to perform in vitro drug susceptibility assays. Cultures were incubated for 48 hours in the presence of varying concentrations of Compound 11 and parasite growth was measured by establishing whole well luciferase activity to calculate EC50 values for each strain.

[3] = system: C. parvum WT transgenic PheRS (wtL482); assay: In vitro drug susceptibility in HCT-8 cells, luminescence, wild type transgenic; type: cell-based; settings: Cryptosporidium parvum, HCT-8, 48 h, read-out: EC50, wild type transgenic
Protocol: as §1, §2

C. hominis (TU 502) = assay: C. hominis TU502 growth in HCT-8 cells; type: cell-based; settings: Cryptosporidium hominis
Protocol: Studies using farm C. parvum isolates and the C. hominis TU502 isolate were performed by Calibr at Scripps Research (La Jolla, Calif.) in 1,536-well plates using a slightly modified immunofluorescence assay as described in Love, M. S. et al. PLoS neglected tropical diseases 11, e0005373, doi:10.1371/journal.pntd.0005373 (2017), hereby incorporated by reference in its entirety. HCT-8 cell culture medium was replaced with RPMI 1640 medium supplemented with 2% heat-inactivated horse serum, 100 U·mL^−1 penicillin, and […] 24 h prior to infection with the indicated isolate. The C. parvum Iowa isolate was included as a reference in all experiments. Imaging was performed using a Cellnsight CX5 High Content screening platform (Thermo Scientific) with a 10× objective and acquisition of one microscopic field per well. Images were processed using HCS Studio Scan software, and the selected-object count (HCT-8 cells) and spot count (parasitophorous vacuoles) were analyzed in Genedata Screener (version 13.0; Standard). Dose-response curves and EC50 values were calculated using the Smart Fit function of Genedata Analyzer.

C. parvum [4] = assay: Host cell invasion assay; type: cell-based, Cryptosporidium parvum
[5] = biological target: recombinant C. hominis PheRS (ChPheRS) (Cryptosporidium hominis, UniProt A0A0S4TD72); assay: C. hominis PheRS aminoacylation assay; type: biochemical; settings: aminoacylation activity
Protocol: The protein sequences of C. hominis PheRS alpha (Chro.30378) and beta subunits (Chro.80385) were retrieved from the Crypto DB (https://cryptodb.org/cryptodb/). Genes were inserted to pETM 11 and pETM 20 vectors and both alpha and beta subunits were co-expressed in E. coli B834 competent cells. Recombinant proteins were expressed by growing cells at 37° C. to OD600 of 0.6-0.8, followed by induction with 0.6 mM isopropyl β-d-1-thiogalactopyranoside (IPTG). The cells were later harvested by centrifugation at 5,000×g and cell pellet suspended in a buffer containing 50 mM Tris-HCl (pH 8.8), 200 mM NaCl, 4 mM [3-mercaptoethanol, 10% (v/v) glycerol, 0.1 mg ml-1 lysozyme and 1 mM phenylmethylsulfonyl fluoride (PMSF)]. The bacterial cells were lysed using sonication and cleared by centrifugation at 20,000×g for 45 mins. […]

COc1ccc(NC(=O)N2CCCCN3[C@H](CN(C)C)[C@H](c4ccc(C#Cc5ccccc5)cc4)[C@@H]3C2)cc1 [Compound 11, (8R,9S,10S)-10-((dimethylamino)methyl)-N-(4-methoxyphenyl)-9-(4-(phenylethynyl)phenyl)-1,6-diazabicyclo[6.2.0]decane-6-carboxamide]
potency on asexual growth (0-48 h) vs DMC1 expression (48-72 h) (C. parvum [1]): approximately equipotent
CC50 (HEK293T cytotoxicity): 5000 nM
EC50 [2]: 29 nM
EC50 [3]: 47 nM
EC50 (C. hominis (TU 502)): 10 nM
effect on host cell invasion (C. parvum [4]): No effect
IC50 [5]: 60 nM
